Test results taken from BindingDB's records for doi:10.1016/s0960-894x(00)00248-1 (University of Munich, 2000).

Target: Beta-lactamase TEM (Escherichia coli, UniProt P62593)
Assay: ChEBML_39213
Protocol: Beta-Lactamase inhibition activity after 15 min of pre-incubation with the enzyme isolated from Escherichia coli 205 TEM

Chain of Beta-lactamase TEM (P62593 whole entry): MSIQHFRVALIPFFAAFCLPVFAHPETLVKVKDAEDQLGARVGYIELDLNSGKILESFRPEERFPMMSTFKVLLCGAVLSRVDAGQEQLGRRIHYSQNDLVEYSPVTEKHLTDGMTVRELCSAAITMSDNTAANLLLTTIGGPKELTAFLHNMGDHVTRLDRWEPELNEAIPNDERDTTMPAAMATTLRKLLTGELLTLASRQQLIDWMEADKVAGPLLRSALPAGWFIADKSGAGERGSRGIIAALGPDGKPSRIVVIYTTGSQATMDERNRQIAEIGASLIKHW

Work on `COC1=C(C(=O)O)N2C(=O)[C@H]([C@@H](C)O)[C@H]2C1` [Potassium; (5R,6S)-6-((R)-1-hydroxy-ethyl)-3-methoxy-7-oxo-1-aza-bicyclo[3.2.0]hept-2-ene-2-carboxylate] yielded an IC50 of 340 µM.
